The values below come from US11034702B2, “Thienoisoquinolines and their derivatives for the treatment of cancer” (VALORBEC, SOCIÉTÉ EN COMMANDITE, priority 2016, dated 2021).

Type in all cases: cell-based, human
One experiment has as its system A549 cells. Kind of experiment: Mitotic arrest (percentage of cells in mitosis) in A549 cells. The conditions noted are these: A549, within one population doubling time. As to the method: FIG. 2A) is a line graph showing the percentage of HCT116 (p53−/−) cells, A549 cells, HeLa cells and H1299 cells in mitosis after treatment with various concentrations of C75 for one population doubling time. All of the cell lines show an increase in the proportion of mitotic cells after treatment with 200 nM C75. The bars indicate standard deviation. […] While the mitotic spindles were not dramatically altered by C75 in HFF1 cells, they were monopolar (as shown) or fragmented in the other cell types. […] The mitotic spindles were more strongly fragmented after C75 treatment in these cells vs. the cells in FIG. 2B). […] While mitotic spindles recovered bipolarity after removing nocodazole, they remained multipolar after removing C75. FIG. 2F) is a series of time-lapse images of a live HeLa cell expressing GFP:tubulin after treatment with C75 as shown in 2D) and 2E). The scale bar for all cells is 10 μm. FIG. 2G) is a schematic showing the putative target for C75. […]
C75 was also tested for efficacy in different cancer cell lines. […] To further assess the role of C75 in affecting centrosomes, HeLa cells were treated with C75 for a short period of time (5 minutes), then C75 was removed and the cells were analyzed for spindle phenotypes (schematic in FIG. 2D). […]

The subject of the next experiment is A549 spheroids. As to the kind of experiment: A549 multicellular tumour spheroids. How it is done: FIG. 5A) is a series of images of HeLa multicellular tumor spheroids (spheroids) treated with control (500 nM C87), empty nanoparticles, 500 nM C75 and 250 nM C75-loaded nanoparticles over 3 days. […] The scale bar for all images is 100 μm. FIG. 5B) is a series images of HeLa spheroids after three days of treatment with control (500 nM C87) or 500 nM C75. The spheroids were stained for fluorescein diacetate (to detect live cells) and propidium iodide (to detect dead cells). […] The scale bar for all images is 100 μm. FIG. 5C) is a series of images of HCT116 spheroids treated with control (1 μM C87), 500 nM C75, 1 μM C75 and 500 nM C75-loaded nanoparticles over 5 days. […] The borders of the spheroids treated with 1 μM C75 or with 500 nM C75-loaded nanoparticles became highly irregular, indicative of loss of spheroid integrity. FIG. 5D) is a series images of HCT116 spheroids after six days of treatment with control (1 μM C87) or 1 μM C75. The spheroids were stained for fluorescein diacetate (live cells) and propidium iodide (dead cells). […] FIG. 5E) is a line graph showing the growth in surface area (%) of HCT116 spheroids treated with control (1 μM C87), 500 nM C75 and 1 μM C75 after six days. FIG. 5F) is a series of images of A549 spheroids treated with control (750 nM C87), 500 nM C75, 1 μM C75 and 500 nM C75-loaded nanoparticles over 5 days. […] The scale bar for all images is 100 μm. […]

Experiment [1] relates to HeLa (cervical adenocarcinoma) cells. Kind of experiment: IC50 (viability) in HeLa cells. As to the method:
19 variants with different structural modifications have been made. […] In particular, it is shown that C75 causes death in multiple cancer cells with IC50 values in the 100 nM range, including breast cancers (MCF7, BT549), lung cancer (A549), colorectal cancer (HCT116) in addition to HeLa cells (cervical cancer).

Regarding `COc1ccc(S(=O)(=O)N2Cc3ccccc3-c3sc(Br)cc32)cc1` [Compound C75], the “concentration causing mitotic arrest” value in the experiment on A549 cells lay in the range of 100 to 200 nM. In addition, the “effect on growth of A549 spheroids” value in the experiment on A549 spheroids (500 nM or 1 μM C75, 500 nM C75-loaded nanoparticles, over 5 days) is “regress the growth”. In addition, the “live/dead staining of spheroids (fluorescein diacetate / propidium iodide)” value in the experiment with A549 spheroids (A549 spheroids, 1 μM, six days) is recorded as “fewer live cells”. Further, 27 nM corresponded to half-maximal inhibition in experiment [1] (Homo sapiens, HeLa cells, cells printed in nM) (IC50). Also, in experiment [1] (comparison of Table 3 IC50 values, cancer vs. non-cancer cells), the “efficacy (effect on viability) in cancer cells vs. non-cancer cells” value is listed as “higher efficacy”.

What is called IC50 is the concentration that gives 50% inhibition. High values mean a need for much substance, low ones inhibition by little substance.
